Results reported in patent US9186318B2, “Quinolyl-containing hydroxamic acid compound and preparation method thereof, and pharmaceutical composition containing this compound and use thereof” (Beijing Konruns Pharmaceutical Co., Ltd, priority 2011, dated 2015).

Legend:
Test in all cases: KinomeScan 96-kinase panel
Format in all cases: binding
Conditions in all cases: compound concentration 1000 nM
[1] = target: ABL1(E255K)-phosphorylated (Homo sapiens (Human), UniProt P00519, E255K)
Description: (§1) The details of the screening technology were described in Fabian, M. A. et al, Nat., Biotechnol. 2005, 23, 329 and Karaman, M. W. et al, Nat., Biotechnol. 2008, 26, 127. From the above representative results, it can be seen that the compounds of the present invention have potent inhibitory activities on kinases including ALK, AXL, VEGFR2, PDGFR-α, PDGFR-β, c-KIT, Flt3, MEK1, MEK2, CSF1R, EPHA2, EPHA2, MKNK2, SRC, TIE2 and their mutants. Accordingly, the compounds of the present invention can be used for the treatment of diseases caused by abnormal activities of these kinases, e.g., cancer, psoriasis, hepatic cirrhosis, diabetes, diseases involving angiogenesis, eye diseases, immune system diseases, cardiovascular diseases, and so forth.

[2] = target: ABL1(T315I)-phosphorylated (Homo sapiens (Human), UniProt P00519, T315I)
Description: as §1

ACVR1B = ACVR1B (Homo sapiens (Human), UniProt P36896)
Sequence of ACVR1B (P36896 24-505): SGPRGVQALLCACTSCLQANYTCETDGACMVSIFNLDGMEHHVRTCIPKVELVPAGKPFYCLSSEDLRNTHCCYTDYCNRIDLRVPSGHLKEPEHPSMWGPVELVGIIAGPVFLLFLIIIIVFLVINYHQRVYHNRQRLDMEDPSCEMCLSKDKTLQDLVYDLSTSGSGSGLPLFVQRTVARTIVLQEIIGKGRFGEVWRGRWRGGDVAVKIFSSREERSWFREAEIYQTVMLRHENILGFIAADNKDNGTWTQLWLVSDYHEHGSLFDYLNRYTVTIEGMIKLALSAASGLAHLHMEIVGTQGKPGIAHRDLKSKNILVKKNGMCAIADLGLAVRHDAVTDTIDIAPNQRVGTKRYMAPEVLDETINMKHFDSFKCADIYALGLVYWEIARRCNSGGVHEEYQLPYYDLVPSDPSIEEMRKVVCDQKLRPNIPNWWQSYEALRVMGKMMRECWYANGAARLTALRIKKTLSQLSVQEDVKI
Description: as §1

ADCK3 = ADCK3 (Homo sapiens (Human), UniProt Q8NI60)
Description: as §1

AKT1 = AKT1 (Homo sapiens (Human), UniProt P31749)
Sequence of AKT1 (P31749 whole entry): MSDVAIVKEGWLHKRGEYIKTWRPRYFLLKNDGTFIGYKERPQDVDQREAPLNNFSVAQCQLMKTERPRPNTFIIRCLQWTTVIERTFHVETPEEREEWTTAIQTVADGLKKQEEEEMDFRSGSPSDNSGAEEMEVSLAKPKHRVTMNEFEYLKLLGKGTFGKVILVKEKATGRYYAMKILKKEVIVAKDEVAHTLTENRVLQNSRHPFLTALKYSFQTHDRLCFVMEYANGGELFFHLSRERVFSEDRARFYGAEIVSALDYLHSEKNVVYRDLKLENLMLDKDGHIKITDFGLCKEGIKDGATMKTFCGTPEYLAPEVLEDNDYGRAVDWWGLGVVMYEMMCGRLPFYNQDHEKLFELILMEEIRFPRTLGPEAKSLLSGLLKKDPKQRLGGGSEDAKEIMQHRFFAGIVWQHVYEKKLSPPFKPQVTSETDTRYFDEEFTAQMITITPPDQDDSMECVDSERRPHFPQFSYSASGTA
Description: as §1

BMPR2 = BMPR2 (Homo sapiens (Human), UniProt Q13873)
Description: as §1

BRAF = BRAF (Homo sapiens (Human), UniProt P15056)
Sequence of BRAF (P15056 whole entry): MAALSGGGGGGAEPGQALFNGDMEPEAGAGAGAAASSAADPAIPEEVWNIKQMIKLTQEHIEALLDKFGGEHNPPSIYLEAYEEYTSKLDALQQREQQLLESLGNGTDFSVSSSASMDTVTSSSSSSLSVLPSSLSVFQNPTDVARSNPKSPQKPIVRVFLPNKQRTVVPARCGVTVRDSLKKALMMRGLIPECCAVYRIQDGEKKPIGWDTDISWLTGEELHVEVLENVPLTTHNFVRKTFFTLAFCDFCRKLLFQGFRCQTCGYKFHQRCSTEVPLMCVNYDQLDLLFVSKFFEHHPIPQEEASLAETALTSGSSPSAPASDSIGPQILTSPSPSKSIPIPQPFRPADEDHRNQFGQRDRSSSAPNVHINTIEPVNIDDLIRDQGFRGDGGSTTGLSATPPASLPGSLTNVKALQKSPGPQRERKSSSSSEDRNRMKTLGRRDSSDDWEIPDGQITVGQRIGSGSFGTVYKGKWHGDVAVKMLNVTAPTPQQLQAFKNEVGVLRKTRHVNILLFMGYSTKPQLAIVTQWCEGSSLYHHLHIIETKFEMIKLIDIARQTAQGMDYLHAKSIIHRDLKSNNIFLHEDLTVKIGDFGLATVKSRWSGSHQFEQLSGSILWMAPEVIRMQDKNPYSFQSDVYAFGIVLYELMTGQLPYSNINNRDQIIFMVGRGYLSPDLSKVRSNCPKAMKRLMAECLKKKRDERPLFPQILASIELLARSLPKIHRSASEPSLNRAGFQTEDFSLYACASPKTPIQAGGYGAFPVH
Description: as §1

BTK = BTK (Homo sapiens (Human), UniProt Q06187)
Description: as §1

CDK7 = CDK7 (Homo sapiens (Human), UniProt P50613)
Sequence of CDK7 (P50613 whole entry): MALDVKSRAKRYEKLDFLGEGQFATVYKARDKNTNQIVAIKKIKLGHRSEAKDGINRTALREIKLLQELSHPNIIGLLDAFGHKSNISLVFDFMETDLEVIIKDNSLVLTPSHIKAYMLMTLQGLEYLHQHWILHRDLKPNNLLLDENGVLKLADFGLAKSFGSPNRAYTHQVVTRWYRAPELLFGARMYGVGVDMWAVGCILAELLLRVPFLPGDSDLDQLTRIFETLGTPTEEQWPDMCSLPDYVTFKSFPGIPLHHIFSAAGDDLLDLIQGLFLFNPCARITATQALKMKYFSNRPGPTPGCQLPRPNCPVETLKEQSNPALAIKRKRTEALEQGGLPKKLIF
Description: as §1

CSF1R = CSF1R (Homo sapiens (Human), UniProt P07333)
Description: as §1

CSNK1D = CSNK1D (Homo sapiens (Human), UniProt P48730)
Description: as §1

DYRK1B = DYRK1B (Homo sapiens (Human), UniProt Q9Y463)
Description: as §1

EGFR = EGFR (Homo sapiens (Human), UniProt P00533)
Description: as §1

EGFR(L858R) = EGFR(L858R) (Homo sapiens (Human), UniProt P00533, L858R)
Description: as §1

ERBB4 = ERBB4 (Homo sapiens (Human), UniProt Q15303)
Description: as §1

FAK = FAK (Homo sapiens (Human), UniProt Q05397)
Description: as §1

LKB1 = LKB1 (Homo sapiens (Human), UniProt Q15831)
Sequence of LKB1 (Q15831 whole entry): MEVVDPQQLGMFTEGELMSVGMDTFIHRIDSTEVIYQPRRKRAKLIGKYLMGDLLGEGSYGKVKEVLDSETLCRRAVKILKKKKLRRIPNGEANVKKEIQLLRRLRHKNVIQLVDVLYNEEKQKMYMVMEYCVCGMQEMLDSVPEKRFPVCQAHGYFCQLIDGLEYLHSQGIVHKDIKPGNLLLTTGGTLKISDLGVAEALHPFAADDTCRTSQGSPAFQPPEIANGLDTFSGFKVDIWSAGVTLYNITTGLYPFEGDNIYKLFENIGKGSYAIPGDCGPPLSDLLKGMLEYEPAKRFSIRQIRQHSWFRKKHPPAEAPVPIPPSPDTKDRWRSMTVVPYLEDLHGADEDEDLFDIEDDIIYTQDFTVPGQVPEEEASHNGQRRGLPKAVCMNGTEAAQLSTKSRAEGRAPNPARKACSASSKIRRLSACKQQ
Description: as §1

MAPKAPK2 = MAPKAPK2 (Homo sapiens (Human), UniProt P49137)
Description: as §1

MARK3 = MARK3 (Homo sapiens (Human), UniProt P27448)
Description: as §1

MEK2 = MEK2 (Homo sapiens (Human), UniProt P36507)
Description: as §1

MET = MET (Homo sapiens (Human), UniProt P08581)
Sequence of MET (P08581 25-1390): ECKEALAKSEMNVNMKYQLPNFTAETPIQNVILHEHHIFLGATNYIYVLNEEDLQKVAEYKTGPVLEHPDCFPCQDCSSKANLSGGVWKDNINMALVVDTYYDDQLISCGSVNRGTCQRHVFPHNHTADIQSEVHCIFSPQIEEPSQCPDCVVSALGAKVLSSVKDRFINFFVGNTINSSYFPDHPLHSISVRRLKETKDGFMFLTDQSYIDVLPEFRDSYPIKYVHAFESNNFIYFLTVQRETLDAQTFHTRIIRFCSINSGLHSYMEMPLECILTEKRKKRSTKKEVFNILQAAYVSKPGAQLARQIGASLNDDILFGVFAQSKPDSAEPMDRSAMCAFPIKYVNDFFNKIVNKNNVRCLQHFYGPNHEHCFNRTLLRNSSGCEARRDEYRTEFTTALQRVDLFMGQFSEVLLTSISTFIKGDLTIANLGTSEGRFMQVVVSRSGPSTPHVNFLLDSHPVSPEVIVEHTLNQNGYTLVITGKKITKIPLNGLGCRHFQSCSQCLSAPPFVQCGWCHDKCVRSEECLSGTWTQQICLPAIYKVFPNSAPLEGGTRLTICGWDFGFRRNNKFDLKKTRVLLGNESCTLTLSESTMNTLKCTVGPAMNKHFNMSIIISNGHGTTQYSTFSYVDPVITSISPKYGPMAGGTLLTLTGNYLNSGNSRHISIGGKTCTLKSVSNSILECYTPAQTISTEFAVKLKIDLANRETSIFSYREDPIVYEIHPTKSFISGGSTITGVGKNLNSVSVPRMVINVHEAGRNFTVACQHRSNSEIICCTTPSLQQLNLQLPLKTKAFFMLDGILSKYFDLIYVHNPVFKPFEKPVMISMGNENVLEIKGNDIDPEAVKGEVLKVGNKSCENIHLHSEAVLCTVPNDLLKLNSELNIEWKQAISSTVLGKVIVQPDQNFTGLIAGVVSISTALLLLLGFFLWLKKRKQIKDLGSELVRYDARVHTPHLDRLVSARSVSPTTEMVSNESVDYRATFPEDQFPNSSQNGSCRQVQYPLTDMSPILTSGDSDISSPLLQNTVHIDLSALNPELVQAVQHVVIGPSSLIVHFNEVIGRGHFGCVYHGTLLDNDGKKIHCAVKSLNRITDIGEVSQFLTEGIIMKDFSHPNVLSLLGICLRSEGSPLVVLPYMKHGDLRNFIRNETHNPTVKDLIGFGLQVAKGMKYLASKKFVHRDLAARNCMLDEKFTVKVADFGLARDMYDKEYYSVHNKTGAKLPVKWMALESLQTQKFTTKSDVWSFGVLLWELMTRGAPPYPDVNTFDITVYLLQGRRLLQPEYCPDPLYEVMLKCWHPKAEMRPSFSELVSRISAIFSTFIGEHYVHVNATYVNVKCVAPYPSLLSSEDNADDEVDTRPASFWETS
Description: as §1

MKNK2 = MKNK2 (Homo sapiens (Human), UniProt Q9HBH9)
Description: as §1

MLK1 = MLK1 (Homo sapiens (Human), UniProt P80192)
Description: as §1

PAK2 = PAK2 (Homo sapiens (Human), UniProt Q13177)
Sequence of PAK2 (Q13177 whole entry): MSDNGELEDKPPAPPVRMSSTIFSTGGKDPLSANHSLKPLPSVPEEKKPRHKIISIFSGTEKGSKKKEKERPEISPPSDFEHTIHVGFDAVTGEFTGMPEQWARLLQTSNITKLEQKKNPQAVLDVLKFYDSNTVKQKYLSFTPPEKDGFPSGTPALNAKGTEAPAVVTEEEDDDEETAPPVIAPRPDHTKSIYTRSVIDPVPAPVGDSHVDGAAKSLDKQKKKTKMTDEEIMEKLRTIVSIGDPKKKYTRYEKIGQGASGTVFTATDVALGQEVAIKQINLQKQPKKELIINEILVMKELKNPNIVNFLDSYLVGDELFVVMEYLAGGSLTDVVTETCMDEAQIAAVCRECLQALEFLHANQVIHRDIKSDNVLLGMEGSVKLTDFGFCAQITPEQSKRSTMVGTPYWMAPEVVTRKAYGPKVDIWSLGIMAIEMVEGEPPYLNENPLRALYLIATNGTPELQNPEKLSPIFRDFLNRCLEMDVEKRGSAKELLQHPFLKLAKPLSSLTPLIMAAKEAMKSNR
Description: as §1

PAK4 = PAK4 (Homo sapiens (Human), UniProt O96013)
Description: as §1

PCTK1 = PCTK1 (Homo sapiens (Human), UniProt Q00536)
Description: as §1

PDGFRA = PDGFRA (Homo sapiens (Human), UniProt P16234)
Description: as §1

PIK3CG = PIK3CG (Homo sapiens (Human), UniProt P48736)
Description: as §1

PIM1 = PIM1 (Homo sapiens (Human), UniProt P11309)
Sequence of PIM1 (P11309 whole entry): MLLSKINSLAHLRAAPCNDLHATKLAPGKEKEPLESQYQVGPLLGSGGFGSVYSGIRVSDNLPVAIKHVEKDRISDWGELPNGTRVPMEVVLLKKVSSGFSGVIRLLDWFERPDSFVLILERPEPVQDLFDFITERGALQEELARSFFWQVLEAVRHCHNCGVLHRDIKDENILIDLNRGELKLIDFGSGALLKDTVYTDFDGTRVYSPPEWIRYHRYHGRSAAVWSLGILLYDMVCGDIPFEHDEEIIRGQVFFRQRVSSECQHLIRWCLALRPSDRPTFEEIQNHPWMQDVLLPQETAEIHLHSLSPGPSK
Description: as §1

PIM3 = PIM3 (Homo sapiens (Human), UniProt Q86V86)
Description: as §1

PRKCE = PRKCE (Homo sapiens (Human), UniProt Q02156)
Description: as §1

RAF1 = RAF1 (Homo sapiens (Human), UniProt P04049)
Description: as §1

ROCK2 = ROCK2 (Homo sapiens (Human), UniProt O75116)
Description: as §1

SNARK = SNARK (Homo sapiens (Human), UniProt Q9H093)
Description: as §1

SRC = SRC (Homo sapiens (Human), UniProt P12931)
Description: as §1

TIE2 = TIE2 (Homo sapiens (Human), UniProt Q02763)
Description: as §1

[3] = target: TYK2 (JH1domain-catalytic) (Homo sapiens (Human), UniProt P29597)
Sequence of TYK2 (JH1domain-catalytic) (P29597 897-1176): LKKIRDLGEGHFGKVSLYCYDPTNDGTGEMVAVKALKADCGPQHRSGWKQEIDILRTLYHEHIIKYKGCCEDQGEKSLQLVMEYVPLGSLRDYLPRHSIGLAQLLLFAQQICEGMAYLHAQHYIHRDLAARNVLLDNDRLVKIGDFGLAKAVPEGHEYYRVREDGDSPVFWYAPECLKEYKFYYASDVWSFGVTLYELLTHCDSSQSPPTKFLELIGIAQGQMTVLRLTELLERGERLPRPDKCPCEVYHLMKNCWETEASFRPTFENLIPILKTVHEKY
Description: as §1

% Ctrl@1000 nM [1]: 7.8 % Ctrl
% Ctrl@1000 nM [2]: 19 % Ctrl
% Ctrl@1000 nM (ACVR1B): 90 % Ctrl
% Ctrl@1000 nM (ADCK3): 100 % Ctrl
% Ctrl@1000 nM (AKT1): 100 % Ctrl
% Ctrl@1000 nM (BMPR2): 100 % Ctrl
% Ctrl@1000 nM (BRAF): 87 % Ctrl
% Ctrl@1000 nM (BTK): 2.6 % Ctrl
% Ctrl@1000 nM (CDK7): 5.8 % Ctrl
% Ctrl@1000 nM (CSF1R): 0 % Ctrl
% Ctrl@1000 nM (CSNK1D): 54 % Ctrl
% Ctrl@1000 nM (DYRK1B): 63 % Ctrl
% Ctrl@1000 nM (EGFR): 6.8 % Ctrl
% Ctrl@1000 nM (EGFR(L858R)): 5.7 % Ctrl
% Ctrl@1000 nM (ERBB4): 17 % Ctrl
% Ctrl@1000 nM (FAK): 12 % Ctrl
% Ctrl@1000 nM (LKB1): 91 % Ctrl
% Ctrl@1000 nM (MAPKAPK2): 67 % Ctrl
% Ctrl@1000 nM (MARK3): 73 % Ctrl
% Ctrl@1000 nM (MEK2): 1.8 % Ctrl
% Ctrl@1000 nM (MET): 7.7 % Ctrl
% Ctrl@1000 nM (MKNK2): 0.1 % Ctrl
% Ctrl@1000 nM (MLK1): 32 % Ctrl
% Ctrl@1000 nM (PAK2): 76 % Ctrl
% Ctrl@1000 nM (PAK4): 100 % Ctrl
% Ctrl@1000 nM (PCTK1): 100 % Ctrl
% Ctrl@1000 nM (PDGFRA): 1.8 % Ctrl
% Ctrl@1000 nM (PIK3CG): 66 % Ctrl
% Ctrl@1000 nM (PIM1): 100 % Ctrl
% Ctrl@1000 nM (PIM3): 100 % Ctrl
% Ctrl@1000 nM (PRKCE): 100 % Ctrl
% Ctrl@1000 nM (RAF1): 53 % Ctrl
% Ctrl@1000 nM (ROCK2): 53 % Ctrl
% Ctrl@1000 nM (SNARK): 91 % Ctrl
% Ctrl@1000 nM (SRC): 0.15 % Ctrl
% Ctrl@1000 nM (TIE2): 0.55 % Ctrl
% Ctrl@1000 nM [3]: 98 % Ctrl
SMILES: COc1cc2c(Oc3ccc(NC(=O)C4(C(=O)Nc5ccc(F)cc5)CC4)cc3F)ccnc2cc1OCCCCCC(=O)NO [Example 13, N1′-[3-fluoro-4-[[7-[6-(hydroxyamino)-6-oxohexyloxy]-6-methoxy-4-quinolyl]oxy]phenyl]-N1-(4-fluorophenyl)cyclopropane-1,1-dicarboxamide]
